Measured values from patent US7560473B2 (Institute of Pharmacology and Toxicology Academy of …, priority 2001, dated 2009).
Marks after values point to notes of the source that are not given here.

What was measured:
[1] = system: outward potassium currents in smooth muscle cells derived from intrapulmonary arteries; assay: Whole cell recording of outward potassium currents in intrapulmonary arterial SMCs and glibenclamide antagonism; type: cell-based, Wistar rats
Description: Effects of Compound 1 on Potassium Currents in Isolated Intrapulmonary arterial SMCs and Glibenclamide Antagonism
The outward potassium currents were recorded in smooth muscle cells derived from intrapulmonary arteries of normotensive rats. Cells were sealed, clamped at −70 mV and depolarized to +50 mV at an increasing step of 10 mV with 100 ms duration. After application of compound 1 at the concentration of 10 μmol L^−1, the amplitude of the currents in 5/8 cells was increased to 115.4±2.8% compared with control recorded before compound application (P<0.01 n=5). While in the presence of both compound 1 and glibenclamide at the concentration of 10 μmol L^−1 and 30 μmol L^−1 respectively, the amplitude of the outward potassium currents in 7/7 cells was detected to be 83.1±8.3% of control, which was decreased compared with the presence of compound 1 only (P<0.01 n=7).
2. Preparation of smooth muscle cells from intrapulmonary arteries: Male Wistar rats were killed by decapitation. The intrapulmonary arteries were isolated and moved quickly into physiological salt solutions (PSS, 4° C.) Then the arteries were cut longitudinally and cut into small segments after scraping off the endothelium gently with a cotton swab. The fragments were then incubated at 37° C. in Ca^2+-free PSS for 20 to 30 minutes. […]

jirds = assay: Pan-cerebral ischemia-reperfusion injury in jirds (BCAO); type: in vivo; details: 7 days, dosage-dependent
Description: Biological Activity Experiment 7 The Protective Effects of compound 1 on Pan-Cerebral Ischemia-Reperfusion Injury in Jirds
The methods of biological activity experiment were carried out as follows: equal amounts of male and female jirds (60-70 g) were subjected to bilateral cervical aorta occlusion (BCAO) under narcotism. The drugs or equal amounts of physiological saline solution were injected peritoneally at 30 min before occlusion. After the blood flow in the bilateral cervical aorta was blocked for 5 min, reperfusion was restored and the drug was administered once a day for 7 days. During the BCAO, the body temperature was maintained at 37° C. In the control group, the cervical aorta was only exposed, while not blocked for blood flow. The animals were divided in 6 groups randomly: control group, ischemic group and compound-treated group (0.5, 1.0, 2.0 and 4.0 mg.kg^−1, ip). 7 days after BCAO, the animals were deeply anesthetized by injecting peritoneally 80 mg.kg^−1 pentobarbitol sodium, and perfused with 50 mL physiological saline solution and 4% paraformaldehyde through heart. The brain was dissected, immersed in 4% paraformaldehyde for 24 h, dehydrated, cleared, embedded with paraffin, sectioned and stained with HE. TUNEL staining was employed to detect the nerve apoptosis.

SHRsp = assay: Prophylaxis and treatment of SHRsp cerebral apoplexy; type: in vivo, rats; details: for Survival time: control 4.6 ± 3.8; for Survival time / Period needed for onset of cerebral apoplexy: means ± SD; for Period needed for onset of cerebral apoplexy: control 48.3 ± 7.4; for Death rate of cerebral apoplexy / Rate of cerebral apoplexy: n 12; for Death rate of cerebral apoplexy: control 50.0; for Rate of cerebral apoplexy: control 83.3
Description: Biological activity experiment 8 the prophylaxis and treatment of cerebral apoplexy with compound 1 of formula Ia
The methods of biological activity experiments were carried out as follows: Desired concentration of compound 1 was prepared with distilled water, while desired concentration of nimodipine was prepared with market available Jinglongyu^T oil. 30 male and 30 female SHRsp (10 weeks old, 120-180 g) were purchased from the vascular disease research center of Academy of Military Medical Science. All SHRsp were divided randomly into five groups based on blood pressure, body weight and sex: control group (fed with equal amount of Jinglongyu^T oil), […], […], […], and 4.0 mg.kg^−1d^−1 nimodipine treated group. Each group contained 12 animals and 4-5 animals were fed in a cage. The feedstaff (containing 23-24% protein) was purchased from experimental animal center of Academy of Military Medical Science. The animals were fed with tap water containing 1% NaCl to accelerate the onset of cerebral apoplexy. 12 normal WKY rats (with the same age and sex with the above) were selected as control, and fed with tap water and the same feedstuff. When reached 11 weeks old, the animals were fed with drugs for experiments.

cordical nerve = assay: Cordical nerve apoptosis induced by low level oxygen and glucose; type: cell-based, Wistar rats; details: for Apoptosis percentage: low level oxygen and glucose 16 h, flow cytometer, control 2.3 ± 1.2, low oxygen and glucose alone 23.8 ± 7.4, means ± SD
Description: Biological Activity Experiment 9 The Inhibition Effects of Compound 1 on the Cordical Nerve Apoptosis Induced by Low Level Oxygen and Glucose
The methods of biological activity experiment 9 were carried out as follows: The cordical nerve were prepared from 12-hour old Wistar rats and cultured. See G. Y. Yang, A. L. Bentz. Reperfusion-induced injure to the blood-brain after middle cerebral artery occlusion in rats. Stroke, 1994,25:1658-1665. Serum-free DMEM medium was applied 12 days later. The preparation was incubated in low oxygen tank (95% N2+5% CO2) for 8, 16 and 24 h respectively, and then restored oxygen to normal level for another 24 h. The experiments on five groups were as follows: the control group was cultured for 14 days with normal medium; low level oxygen and glucose treated group was cultured with normal medium for 12 days, then with serum-free medium containing low level oxygen and glucose for 16 h and with normal oxygen level for another 24 h; compound 1 treated group was cultured in serum-free medium containing low level oxygen and glucose for 16 h and with normal oxygen level for another 24 h, then added respectively different concentrations of compound 1 (0.1, 1.0 and 10 umol.L^−1). As to the method for detecting apoptosis by the electron microscopy and flow cytometer, refer to C.Du, R.Hu, C. A. Csernansky, et al. Very delayed infarction after mild focal cerebral ischemia: a role for apoptosis. J.Cereb.Flow Metab., 1996,16:195-201; M.Chopp, Y.Li, N.Jiang, et al. Antibodies against adhesion molecules reduced apoptosis after transient middle artery occlusion in rat brain. J.Cereb.Flow Metab., 1996,16:578-584.

Which results are given for `CC(C)NC(C)(C)C(C)C` [compound 1, N-(1-methylethyl)-2,3-dimethyl-2-butylamine]?
amplitude of the outward potassium currents compared with control ([1]; compound 1 10 μmol L^−1, 5/8 cells, n=5): 115.4±2.8%; amplitude of the outward potassium currents, of control ([1]; compound 1 10 μmol L^−1 in the presence of glibenclamide 30 μmol L^−1, 7/7 cells, n=7): 83.1±8.3%; number of dead pyramidal nerve of hippocampal CA1 region (HE staining) (jirds; 0.5-4.0 mg.kg^−1.d^−1 ip): significantly decreased the number of dead pyramidal nerve; apoptosis of pyramidal nerve of hippocampal CA1 region (TUNEL) (jirds; 0.5-4.0 mg.kg^−1 ip): significantly alleviate the apoptosis; Survival time (SHRsp; 0.25 mg · kg^−1d^−1 fed): 7.2 ± 5.3 days; Period needed for onset of cerebral apoplexy (SHRsp; 0.25 mg · kg^−1d^−1 fed): 58.6 ± 14.1 days; Death rate of cerebral apoplexy (SHRsp; 0.25 mg · kg^−1d^−1 fed): 27.3%; Rate of cerebral apoplexy (SHRsp; 0.25 mg · kg^−1d^−1 fed): 72.7%; Survival time (SHRsp; 1 mg · kg^−1d^−1 fed): 10.2 ± 4.1 days; Period needed for onset of cerebral apoplexy (SHRsp; 1 mg · kg^−1d^−1 fed): 60.8 ± 18.9 days; Death rate of cerebral apoplexy (SHRsp; 1 mg · kg^−1d^−1 fed): 20.0%; Rate of cerebral apoplexy (SHRsp; 1 mg · kg^−1d^−1 fed): 40.0* %; Survival time (SHRsp; 4 mg · kg^−1d^−1 fed): 11.8 ± 3.2 days; Period needed for onset of cerebral apoplexy (SHRsp; 4 mg · kg^−1d^−1 fed): 68.6 ± 16.5 days; Death rate of cerebral apoplexy (SHRsp; 4 mg · kg^−1d^−1 fed): 8.3* %; Rate of cerebral apoplexy (SHRsp; 4 mg · kg^−1d^−1 fed): 33.3* %; nerve symptom of cerebral apoplexy (in words) (SHRsp; SHRsp): significantly improve the nerve symptom; Apoptosis percentage (cordical nerve; 0.1 umol · L^−1): 17.6 ± 5.8%; Apoptosis percentage (cordical nerve; 1 umol · L^−1): 13.9 ± 5.2 %; Apoptosis percentage (cordical nerve; 10 umol · L^−1): 10.8 ± 4.1 %; apoptotic changes of cordical nerve cells under electron microscopy (in words) (cordical nerve; 10 umol.L^−1, low level oxygen and glucose): the above mentioned changes were hardly observed
